Laboratory results: US20100267561A1, “HERBICIDAL PYRIDAZINONE DERIVATIVES” (priority 2007, published 2010)

Columns and labels:
Format in all cases: in vivo
[1] = tested on: Italian ryegrass (Lolium multiflorum); assay: Test B pre-/postemergence plant response
Method in brief: (§1)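 Seeds were sown and sprayed preemergence, while plants at 2 to 18 cm (1- to 4-leaf stage) got postemergence sprays. Compounds were formulated in a non-phytotoxic solvent mixture with surfactant. After 13 to 15 days in a greenhouse, injury was rated visually against untreated controls, 0 (no effect) to 100 (complete control).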

[2] = tested on: Russian thistle (Salsola iberica); assay: Test B pre-/postemergence plant response; details: Preemergence
Method in brief: as §1

[3] = tested on: bermudagrass (Cynodon dactylon); assay: Test B pre-/postemergence plant response; details: for Bermudagrass plant response rating: 8 g ai/ha
Method in brief: as §1

[4] = tested on: cocklebur (Xanthium strumarium); assay: Test B pre-/postemergence plant response; details: for Cocklebur plant response rating: 8 g ai/ha
Method in brief: as §1

[5] = tested on: common ragweed (Ambrosia elation); assay: Test B pre-/postemergence plant response
Method in brief: as §1

[6] = tested on: goosegrass (Eleusine indica); assay: Test B pre-/postemergence plant response
Method in brief: as §1

[7] = tested on: lambsquarters (Chenopodium album); assay: Test B pre-/postemergence plant response
Method in brief: as §1

[8] = tested on: large crabgrass (Digitaria sanguinalis); assay: Test B pre-/postemergence plant response
Method in brief: as §1

[9] = tested on: soybean (Glycine max); assay: Test B pre-/postemergence plant response
Method in brief: as §1

[10] = tested on: velvetleaf (Abutilon theophrasti); assay: Test B pre-/postemergence plant response
Method in brief: as §1

[11] = tested on: barnyardgrass (Echinochloa crus-galli); assay: Test B flooded paddy test plant response
Method in brief: (§2)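 Paddy-water application to 2-leaf plants in pots held under 3 cm of flooding; response is a 0–100 visual control rating against controls after 13 to 15 days, and a dash marks a missing result.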

[12] = tested on: ducksalad (Heteranthera limosa); assay: Test B flooded paddy test plant response
Method in brief: as §2

[13] = tested on: rice (Oryza sativa); assay: Test B flooded paddy test plant response
Method in brief: as §2

[14] = tested on: umbrella sedge (Cyperus difformis); assay: Test B flooded paddy test plant response
Method in brief: as §2

[15] = Preemergence, 16 g ai/ha, scale 0 to 100 (0 no effect, 100 complete control)
[16] = Preemergence, 31 g ai/ha, scale 0 to 100 (0 no effect, 100 complete control)
[17] = Preemergence, 62 g ai/ha, scale 0 to 100
[18] = Preemergence, 8 g ai/ha, scale 0 to 100
[19] = 31 g ai/ha, scale 0 to 100 (0 no effect, 100 complete control)
[20] = Preemergence, scale 0 to 100 (0 no effect, 100 complete control)
[21] = Preemergence, 31 g ai/ha, 0 to 100 scale, 0 no effect, 100 complete control
[22] = Preemergence, 62 g ai/ha, 0 to 100 scale, 0 no effect, 100 complete control
[23] = Flood (flooded paddy test), 62 g ai/ha, scale 0 to 100, 0 no effect, 100 complete control
[24] = Flood (flooded paddy test), 125 g ai/ha, scale 0 to 100, 0 no effect, 100 complete control
[25] = Flood (flooded paddy test), 250 g ai/ha, scale 0 to 100, 0 no effect, 100 complete control
[26] = Flood, 31 g ai/ha, scale 0 to 100
[27] = 8 g ai/ha, postemergence, 0-100 scale
[28] = Postemergence, 16 g ai/ha, scale 0 to 100
[29] = Postemergence, 31 g ai/ha, scale 0 to 100
[30] = Postemergence, 62 g ai/ha, scale 0 to 100, 0 no effect, 100 complete control
[31] = Preemergence, 16 g ai/ha, scale 0 to 100

## Cc1cc(-c2ccc(Cl)cc2)nn1-c1c(OS(=O)(=O)C(C)C)cnn(C)c1=O [Compound 50]
[1]; [15]
  Plant response rating, Ryegrass, Italian: 0
[1]; [16]
  Plant response rating, Ryegrass, Italian: 5
[1]; [17]
  Plant response rating, Ryegrass, Italian: 100
[1]; [18]
  Ryegrass, Italian plant response rating: 0
[2]; 16 g ai/ha, scale 0 to 100 (0 no effect, 100 complete control)
  Plant response rating, Russian Thistle: 0
[2]; [19]
  Plant response rating, Russian Thistle: 0
[2]; 62 g ai/ha, scale 0 to 100
  Plant response rating, Russian Thistle: 0
[2]; 8 g ai/ha, scale 0 to 100
  Russian Thistle plant response rating: 0
[3]; [20]
  Bermudagrass plant response rating: 90
[3]; [15]
  Plant response rating, Bermudagrass: 100
[3]; [21]
  Plant response rating, Bermudagrass: 100
[3]; [17]
  Plant response rating, Bermudagrass: 100
[4]; [15]
  Plant response rating, Cocklebur: 0
[4]; [21]
  Plant response rating, Cocklebur: 0
[4]; [17]
  Plant response rating, Cocklebur: 0
[4]; Preemergence, scale 0 to 100
  Cocklebur plant response rating: 0
[5]; [15]
  Plant response rating, Ragweed: 0
[5]; [16]
  Plant response rating, Ragweed: 0
[5]; [17]
  Plant response rating, Ragweed: 0
[5]; [18]
  Ragweed plant response rating: 0
[6]; [15]
  Plant response rating, Goosegrass: 80
[6]; [21]
  Plant response rating, Goosegrass: 98
[6]; [17]
  Plant response rating, Goosegrass: 100
[6]; [18]
  Goosegrass plant response rating: 0
[7]; [15]
  Plant response rating, Lambsquarters: 65
[7]; [21]
  Plant response rating, Lambsquarters: 100
[7]; [17]
  Plant response rating, Lambsquarters: 100
[7]; [18]
  Lambsquarters plant response rating: 0
[8]; [15]
  Plant response rating, Crabgrass, Large: 98
[8]; [21]
  Plant response rating, Crabgrass, Large: 100
[8]; [17]
  Plant response rating, Crabgrass, Large: 100
[8]; [18]
  Crabgrass, Large plant response rating: 60
[9]; [15]
  Plant response rating, Soybean: 50
[9]; [16]
  Plant response rating, Soybean: 100
[9]; [17]
  Plant response rating, Soybean: 100
[9]; [18]
  Soybean plant response rating: 0
[10]; [15]
  Plant response rating, Velvetleaf: 0
[10]; [16]
  Plant response rating, Velvetleaf: 0
[10]; [22]
  Plant response rating, Velvetleaf: 0
[10]; [18]
  Velvetleaf plant response rating: 0
[11]; [23]
  Plant response rating, Barnyardgrass: 0
[11]; [24]
  Plant response rating, Barnyardgrass: 0
[11]; [25]
  Plant response rating, Barnyardgrass: 0
[11]; [26]
  Plant response rating, Barnyardgrass: 0
[12]; [23]
  Plant response rating, Ducksalad: 0
[12]; [24]
  Plant response rating, Ducksalad: 0
[12]; [25]
  Plant response rating, Ducksalad: 0
[12]; [26]
  Plant response rating, Ducksalad: 0
[13]; [23]
  Plant response rating, Rice: 0
[13]; [24]
  Plant response rating, Rice: 0
[13]; [25]
  Plant response rating, Rice: 0
[13]; [26]
  Plant response rating, Rice: 0
[14]; [23]
  Plant response rating, Sedge, Umbrella: 0
[14]; [24]
  Plant response rating, Sedge, Umbrella: 0
[14]; [25]
  Plant response rating, Sedge, Umbrella: 0
[14]; [26]
  Plant response rating, Sedge, Umbrella: 0

## Cc1cc(-c2ccc(Cl)cc2)nn1-c1c(OC(=O)c2cccs2)cnn(C)c1=O [Compound 52]
[1]; [27]
  Ryegrass, Italian plant response rating: 70
[1]; [28]
  Plant response rating, Ryegrass, Italian: 80
[1]; [29]
  Plant response rating, Ryegrass, Italian: 95
[1]; [30]
  Plant response rating, Ryegrass, Italian: 100
[1]; [16]
  Plant response rating, Ryegrass, Italian: 95
[1]; [17]
  Plant response rating, Ryegrass, Italian: 100
[1]; [18]
  Ryegrass, Italian plant response rating: 0
[1]; [31]
  Ryegrass, Italian plant response rating: 95
[2]; [19]
  Plant response rating, Russian Thistle: 0
[2]; 62 g ai/ha, scale 0 to 100
  Plant response rating, Russian Thistle: 0
[2]; 8 g ai/ha, scale 0 to 100
  Russian Thistle plant response rating: 0
[2]; 16 g ai/ha, scale 0 to 100
  Russian Thistle plant response rating: 0
[3]; postemergence, 0-100 scale
  Bermudagrass plant response rating: 40
[3]; [28]
  Plant response rating, Bermudagrass: 98
[3]; [29]
  Plant response rating, Bermudagrass: 100
[3]; [30]
  Plant response rating, Bermudagrass: 100
[3]; [20]
  Bermudagrass plant response rating: 0
[3]; [15]
  Plant response rating, Bermudagrass: 0
[3]; [21]
  Plant response rating, Bermudagrass: 0
[3]; [17]
  Plant response rating, Bermudagrass: 85
[4]; postemergence, 0-100 scale
  Cocklebur plant response rating: 0
[4]; [28]
  Plant response rating, Cocklebur: 0
[4]; [29]
  Plant response rating, Cocklebur: 0
[4]; [30]
  Plant response rating, Cocklebur: 0
[4]; [15]
  Plant response rating, Cocklebur: 0
[4]; [21]
  Plant response rating, Cocklebur: 0
[4]; [17]
  Plant response rating, Cocklebur: 0
[4]; Preemergence, scale 0 to 100
  Cocklebur plant response rating: 0
[5]; [27]
  Ragweed plant response rating: 0
[5]; [28]
  Plant response rating, Ragweed: 0
[5]; [29]
  Plant response rating, Ragweed: 0
[5]; [30]
  Plant response rating, Ragweed: 0
[5]; [16]
  Plant response rating, Ragweed: 0
[5]; [17]
  Plant response rating, Ragweed: 0
[5]; [18]
  Ragweed plant response rating: 0
[5]; [31]
  Ragweed plant response rating: 0
[6]; [27]
  Goosegrass plant response rating: 60
[6]; [28]
  Plant response rating, Goosegrass: 65
[6]; [29]
  Plant response rating, Goosegrass: 80
[6]; [30]
  Plant response rating, Goosegrass: 85
[6]; [21]
  Plant response rating, Goosegrass: 0
[6]; [17]
  Plant response rating, Goosegrass: 0
[6]; [18]
  Goosegrass plant response rating: 0
[6]; [31]
  Goosegrass plant response rating: 0
[7]; [27]
  Lambsquarters plant response rating: 0
[7]; [28]
  Plant response rating, Lambsquarters: 0
[7]; [29]
  Plant response rating, Lambsquarters: 0
[7]; [30]
  Plant response rating, Lambsquarters: 0
[7]; [21]
  Plant response rating, Lambsquarters: 0
[7]; [17]
  Plant response rating, Lambsquarters: 0
[7]; [18]
  Lambsquarters plant response rating: 0
[7]; [31]
  Lambsquarters plant response rating: 0
[8]; [27]
  Crabgrass, Large plant response rating: 65
[8]; [28]
  Plant response rating, Crabgrass, Large: 85
[8]; [29]
  Plant response rating, Crabgrass, Large: 100
[8]; [30]
  Plant response rating, Crabgrass, Large: 100
[8]; [21]
  Plant response rating, Crabgrass, Large: 0
[8]; [17]
  Plant response rating, Crabgrass, Large: 0
[8]; [18]
  Crabgrass, Large plant response rating: 0
[8]; [31]
  Crabgrass, Large plant response rating: 0
[9]; [27]
  Soybean plant response rating: 0
[9]; [28]
  Plant response rating, Soybean: 0
[9]; [29]
  Plant response rating, Soybean: 0
[9]; [30]
  Plant response rating, Soybean: 0
[9]; [17]
  Plant response rating, Soybean: 0
[9]; [18]
  Soybean plant response rating: 0
[9]; [31]
  Soybean plant response rating: 0
[10]; [27]
  Velvetleaf plant response rating: 0
[10]; [28]
  Plant response rating, Velvetleaf: 0
[10]; [29]
  Plant response rating, Velvetleaf: 0
[10]; [30]
  Plant response rating, Velvetleaf: 0
[10]; [16]
  Plant response rating, Velvetleaf: 0
[10]; [22]
  Plant response rating, Velvetleaf: 0
[10]; [18]
  Velvetleaf plant response rating: 0
[10]; [31]
  Velvetleaf plant response rating: 0
[11]; [23]
  Plant response rating, Barnyardgrass: 15
[11]; [25]
  Plant response rating, Barnyardgrass: 75
[12]; [23]
  Plant response rating, Ducksalad: 0
[12]; [25]
  Plant response rating, Ducksalad: 0
[13]; [23]
  Plant response rating, Rice: 10
[13]; [25]
  Plant response rating, Rice: 60
[14]; [23]
  Plant response rating, Sedge, Umbrella: 0
[14]; [25]
  Plant response rating, Sedge, Umbrella: 0
